This passage reports T/C results from PubChem BioAssay AID248 (DTP/NCI, 2004).

Structures are written as SMILES. Values joined by “and” are separate entries in the source; they are usually repeats but may differ in a detail not shown here. Identical values can stand only once. Inconclusive results and toxic doses are left out.

The subject of the test is L1210 leukemia ip in BDF1 mice, survival T/C. The test is described as follows: NCI In Vivo Anticancer Drug Screen. Data for tumor model L1210 Leukemia (intraperitoneal) in B6D2F1 (BDF1) mice. To be noted: endpoint: mean survival time, higher = longer survival. In short, it runs like this: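 Read-out is survival time, reported as the treated-group measurement over the vehicle-control measurement.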

Setting [1] is: dose: 6.25 mg/kg/injection, schedule: Q04DX003 (ip), vehicle: saline with Tween-80.
Where [2] appears, read: dose: 12.5 mg/kg/injection, schedule: Q04DX003 (ip), vehicle: saline with Tween-80.
[3] abbreviates: dose: 25.0 mg/kg/injection, schedule: Q01DX009 (ip), vehicle: saline with Tween-80.
[4] abbreviates: dose: 25.0 mg/kg/injection, schedule: Q04DX003 (ip), vehicle: saline with Tween-80.
Setting [5] is: dose: 100.0 mg/kg/injection, schedule: Q04DX003 (ip), vehicle: Klucel (hydroxypropylcellulose) (HPC).
Where [6] appears, read: dose: 100.0 mg/kg/injection, schedule: Q04DX003 (ip), vehicle: saline.
[7] abbreviates: dose: 200.0 mg/kg/injection, schedule: Q04DX003 (ip), vehicle: saline.
[8] abbreviates: dose: 400.0 mg/kg/injection, schedule: Q04DX003 (ip), vehicle: saline.

On to `NNC(=O)Cc1csc2ccccc12`, for which the T/C is 102 % of control (dose: 55.5 mg/kg/injection, schedule: Q01DX Z (ip), vehicle: carboxymethylcellulose (CMC)); 114 % of control (dose: 83.3 mg/kg/injection, schedule: Q01DX Z (ip), vehicle: carboxymethylcellulose (CMC)); 119 % of control (dose: 125.0 mg/kg/injection, schedule: Q01DX Z (ip), vehicle: carboxymethylcellulose (CMC)).

In the case of `CCCCCCCCOC(CN)C(Cl)(Cl)Cl` (configuration not stated), the T/C reads like this: (dose: 6.25 mg/kg/injection, schedule: Q01DX009 (ip), vehicle: saline with Tween-80) 103 % of control; under setting [1], 91 % of control; (dose: 12.5 mg/kg/injection, schedule: Q01DX009 (ip), vehicle: saline with Tween-80) 100 % of control; under setting [2], 94 % of control; under setting [3], 100 % of control; under setting [4], 94 % of control.

Turning to `Cn1nnc(N/N=C/c2ccccc2)n1`, the T/C was 100 % of control under setting [1]; 107 % of control under setting [2]; 94 % of control under setting [3]; 94 % of control and 109 % of control under setting [4]; 95 % of control (dose: 50.0 mg/kg/injection, schedule: Q04DX003 (ip), vehicle: saline with Tween-80); 88 % of control (dose: 100.0 mg/kg/injection, schedule: Q04DX003 (ip), vehicle: saline with Tween-80).

In the case of `CCN(CC)CCN(CC(=O)O)CC(=O)O`, the T/C (dose: 100.0 mg/kg/injection, schedule: Q01DX001 (ip), vehicle: saline) was 108 % of control and 98 % of control; the T/C (dose: 200.0 mg/kg/injection, schedule: Q01DX001 (ip), vehicle: saline) was 90 % of control and 102 % of control; the T/C (dose: 400.0 mg/kg/injection, schedule: Q01DX001 (ip), vehicle: saline) is 96 % of control and 102 % of control.

`CCCCC(CN)c1cccc2ccccc12` (configuration not stated): the T/C was 95 % of control (dose: 25.0 mg/kg/injection, schedule: Q04DX002 (ip), vehicle: saline with Tween-80) and 92 % of control (dose: 50.0 mg/kg/injection, schedule: Q04DX002 (ip), vehicle: saline with Tween-80).

Turning to `NC1CCC(CC23CC4CC(CC(C4)C2)C3)CC1` (configuration not stated), the T/C is, setting by setting: (dose: 25.0 mg/kg/injection, schedule: Q04DX003 (ip), vehicle: Klucel (hydroxypropylcellulose) (HPC)) 110 % of control; (dose: 50.0 mg/kg/injection, schedule: Q04DX003 (ip), vehicle: Klucel (hydroxypropylcellulose) (HPC)) 102 % of control; under setting [5], 94 % of control and 101 % of control.

As for `Oc1ccc2ccccc2c1CN1CCCCC1`, the T/C is, setting by setting: (dose: 75.0 mg/kg/injection, schedule: Q01DX009 (ip), vehicle: saline) 92 % of control; under setting [6], 90 % of control; (dose: 150.0 mg/kg/injection, schedule: Q01DX009 (ip), vehicle: saline) 95 % of control; under setting [7], 101 % of control; (dose: 300.0 mg/kg/injection, schedule: Q01DX009 (ip), vehicle: saline) 89 % of control; under setting [8], 106 % of control.

Consider `O=NN(CCCl)C(=O)NC1CSCSC1`, for which the T/C runs as follows: (dose: 7.0 mg/kg/injection, schedule: Q01DX001 (ip), vehicle: other) 284 % of control; (dose: 10.0 mg/kg/injection, schedule: Q01DX001 (ip), vehicle: other) 322 % of control; (dose: 15.0 mg/kg/injection, schedule: Q01DX001 (ip), vehicle: other) 333 % of control; (dose: 25.0 mg/kg/injection, schedule: Q01DX001 (ip), vehicle: other) 168 % of control; (dose: 30.0 mg/kg/injection, schedule: Q01DX001 (ip), vehicle: other) 277 % of control; (dose: 45.0 mg/kg/injection, schedule: Q01DX001 (ip), vehicle: other) 107 % of control.

For `O=S(=O)(Nc1ccc(O)c(Cl)c1)c1ccccc1`, the T/C (dose: 100.0 mg/kg/injection, schedule: Q01DX009 (ip), vehicle: saline with Tween-80) was 100 % of control; the T/C (dose: 200.0 mg/kg/injection, schedule: Q01DX009 (ip), vehicle: saline with Tween-80) was 103 % of control; the T/C (dose: 400.0 mg/kg/injection, schedule: Q01DX009 (ip), vehicle: saline with Tween-80) was 95 % of control.

For `Cc1nc(N)[nH]c(=O)c1CCCC#N`, the T/C was 104 % of control (dose: 100.0 mg/kg/injection, schedule: Q01DX001 (ip), vehicle: Klucel (hydroxypropylcellulose) (HPC)); 97 % of control and 109 % of control (dose: 100.0 mg/kg/injection, schedule: Q04DX002 (ip), vehicle: Klucel (hydroxypropylcellulose) (HPC)); 101 % of control under setting [5]; 98 % of control (dose: 200.0 mg/kg/injection, schedule: Q01DX001 (ip), vehicle: Klucel (hydroxypropylcellulose) (HPC)); 93 % of control and 103 % of control (dose: 200.0 mg/kg/injection, schedule: Q04DX002 (ip), vehicle: Klucel (hydroxypropylcellulose) (HPC)); 112 % of control (dose: 200.0 mg/kg/injection, schedule: Q04DX003 (ip), vehicle: Klucel (hydroxypropylcellulose) (HPC)). The T/C (dose: 400.0 mg/kg/injection, schedule: Q01DX001 (ip), vehicle: Klucel (hydroxypropylcellulose) (HPC)) was 100 % of control; the T/C (dose: 400.0 mg/kg/injection, schedule: Q04DX002 (ip), vehicle: Klucel (hydroxypropylcellulose) (HPC)) is 104 % of control and 90 % of control.

In the case of `CCCOC(=O)c1ccc(OC(=O)NC)cc1`, the T/C (dose: 100.0 mg/kg/injection, schedule: Q01DX001 (ip), vehicle: carboxymethylcellulose (CMC)) was 92 % of control; the T/C (dose: 100.0 mg/kg/injection, schedule: Q01DX009 (ip), vehicle: carboxymethylcellulose (CMC)) is 101 % of control and 106 % of control; the T/C (dose: 100.0 mg/kg/injection, schedule: Q04DX002 (ip), vehicle: carboxymethylcellulose (CMC)) was 102 % of control and 112 % of control; the T/C (dose: 100.0 mg/kg/injection, schedule: Q04DX003 (ip), vehicle: carboxymethylcellulose (CMC)) was 102 % of control; the T/C (dose: 200.0 mg/kg/injection, schedule: Q01DX001 (ip), vehicle: carboxymethylcellulose (CMC)) was 102 % of control; the T/C (dose: 200.0 mg/kg/injection, schedule: Q01DX009 (ip), vehicle: carboxymethylcellulose (CMC)) is 109 % of control and 88 % of control. Moreover, the T/C by setting is: (dose: 200.0 mg/kg/injection, schedule: Q04DX002 (ip), vehicle: carboxymethylcellulose (CMC)) 97 % of control and 102 % of control; (dose: 200.0 mg/kg/injection, schedule: Q04DX003 (ip), vehicle: carboxymethylcellulose (CMC)) 91 % of control; (dose: 400.0 mg/kg/injection, schedule: Q01DX001 (ip), vehicle: carboxymethylcellulose (CMC)) 96 % of control; (dose: 400.0 mg/kg/injection, schedule: Q04DX002 (ip), vehicle: carboxymethylcellulose (CMC)) 94 % of control and 102 % of control.

As to `OCC1OC(n2ncc3ccccc32)C(O)C1O` (configuration not stated), the T/C is 109 % of control (dose: 50.0 mg/kg/injection, schedule: Q01DX005 (ip), vehicle: other); 105 % of control (dose: 100.0 mg/kg/injection, schedule: Q01DX005 (ip), vehicle: other); 98 % of control (dose: 200.0 mg/kg/injection, schedule: Q01DX005 (ip), vehicle: other).

With `O=c1[nH]c2cccnc2c(=O)n1O`, the T/C was 108 % of control (dose: 175.0 mg/kg/injection, schedule: Q04DX003 (ip), vehicle: carboxymethylcellulose (CMC)) and 92 % of control (dose: 350.0 mg/kg/injection, schedule: Q04DX003 (ip), vehicle: carboxymethylcellulose (CMC)).

Regarding `S=C([SH2+])[SH2+].S=C([SH2+])[SH2+].[Pt+2].c1ccc(C[P+](c2ccccc2)(c2ccccc2)c2ccccc2)cc1`, the T/C reads like this: (dose: 12.5 mg/kg/injection, schedule: Q01DX009 (ip), vehicle: saline) 96 % of control; (dose: 25.0 mg/kg/injection, schedule: Q01DX009 (ip), vehicle: saline) 97 % of control.

Turning to `O=C(c1ccc(-c2ccccc2)cc1)C1CC1`, the T/C is, setting by setting: (dose: 100.0 mg/kg/injection, schedule: Q01DX009 (ip), vehicle: Klucel (hydroxypropylcellulose) (HPC)) 97 % of control; (dose: 200.0 mg/kg/injection, schedule: Q01DX009 (ip), vehicle: Klucel (hydroxypropylcellulose) (HPC)) 97 % of control; (dose: 400.0 mg/kg/injection, schedule: Q01DX009 (ip), vehicle: Klucel (hydroxypropylcellulose) (HPC)) 91 % of control.

On to `CSC(=S)NC#N`, for which the T/C (dose: 50.0 mg/kg/injection, schedule: Q01DX009 (ip), vehicle: saline) is 93 % of control; the T/C (dose: 100.0 mg/kg/injection, schedule: Q01DX009 (ip), vehicle: saline) was 93 % of control; the T/C under setting [6] was 101 % of control; the T/C (dose: 200.0 mg/kg/injection, schedule: Q01DX009 (ip), vehicle: saline) is 89 % of control; the T/C under setting [7] is 106 % of control; the T/C under setting [8] is 98 % of control.
